Where a name gives a salt, the structure may show the parent alone.
Key:
SAMP8 mice = experiment: Gripping force of the forelimb (grip test activity meter) in senescence-accelerated model; format: in vivo, mouse; conditions: oral, every day for 28 days, 0.125 mg/kg and 0.25 mg/kg (both doses), 28th day, vs distilled water administered group, Williams' test P<0.05
Procedure: On senescence-accelerated models, SAMP8 mice, an ameliorating action on a muscle weakness by administering (−)-17-(cyclopropylmethyl)-3,14β-dihydroxy-4,5α-epoxy-6β-[N-methyl-trans-3-(3-furyl)acrylamide]morphinan hydrochloride (compound 1) produced in accordance with International Publication No. WO 93/015081 was evaluated. […] For this reason, an evaluation of an ameliorating effect and a prophylactic effect on the muscle weakness symptom is considered to be possible.
For the evaluation of drug efficacy, 7-week old male SAMP8/TaSlc mice (Japan SLC, Inc.) were purchased, then kept for 9 months and used for the test. For the total of 3 days from 3 days to 1 day before administration of the test substance, a gripping force of the forelimb was measured using a grip test activity meter, an average value of the 3 days was calculated, and then the mice were grouped in such a way that the average of muscle strengths in each group was equal. To clarify that the model is a muscle weakness model, a control of a senescence-accelerated model animal was set. […]
Compound 1 was orally administered to SAMP8 mice every day for 28 days. […] Using a grip test activity meter, the muscle strength was evaluated by measuring a gripping force of the forelimb on 28th day after starting administration of compound 1 (last day of the administration). […]

A549 cells = experiment: Tumor volume in malignant tumor model (A549 cells transplanted to nude mice); format: in vivo, mouse; conditions: oral, every day for 28 days, 0.125 mg/kg and 0.25 mg/kg (both doses); tumor volume on 28th day; vs distilled water administered group
Procedure: (§1) On malignant tumor model animals obtained by transplanting A549 cells, adenocarcinomic human alveolar basal epithelial cells, to nude mice, an ameliorating action on a muscle weakness by administering (−)-17-(cyclopropylmethyl)-3,14β-dihydroxy-4,5α-epoxy-6β-[N-methyl-trans-3-(3-furyl)acrylamide]morphinan hydrochloride (hereinafter, compound 1) produced in accordance with International Publication No. WO 93/015081 was evaluated. […] For this reason, an evaluation of an ameliorating effect and a prophylactic effect on the muscle weakness symptom is considered to be possible.
(§2) A549 cell subculture was carried out using 10% FBS-containing RPMI 1640 medium. For an evaluation of drug efficacy, 7-week old female BALB/C slc/nu/nu mice (Japan SLC, Inc.) were purchased, acclimated for 1 week and then used. The malignant tumor model animal was created as follows. […] The tumor volume was determined by measuring a tumor diameter using a digital vernier caliper by the following calculating formula. […]
(§3) 43rd to 70th days from cell transplantation, compound 1 was orally administered every day to the malignant tumor model animals for 28 days. […] Using a grip test activity meter (Muromachi Kikai Co., Ltd.), a muscle strength was evaluated by measuring a gripping force of the forelimb on 28th day after starting administration of compound 1 (last day of the administration). […]

[1] = system: malignant tumor model animals obtained by transplanting A549 cells to nude mice; experiment: Gripping force of the forelimb (grip test activity meter) in malignant tumor model; format: in vivo, mouse; conditions: oral, every day for 28 days, 0.125 mg/kg and 0.25 mg/kg (both doses), 28th day
Procedure: as §1, §2, §3

cancer cachexia patients = conditions: cited from earlier work

SMILES | increasing action on the gripping force (muscle strength) (SAMP8 mice) | suppressing action on the tumor volume increase (A549 cells) | gripping force (muscle strength) compared with the model control group [1] | increasing action on the gripping force (muscle strength) ([1]; vs distilled water administered group, Dunnett's test P<0.05) | ameliorating action on a muscle weakness symptom (physical function) (cancer cachexia patients) | lean body mass (cancer cachexia patients)
CN(C(=O)/C=C/c1ccoc1)[C@@H]1CC[C@@]2(O)[C@H]3Cc4ccc(O)c5c4[C@@]2(CCN3CC2CC2)[C@H]1O5 [compound 1, (−)-17-(cyclopropylmethyl)-3,14β-dihydroxy-4,5α-epoxy-6β-[N-methyl-trans-3-(3-furyl)acrylamide]morphinan hydrochloride] | statistically remarkable increasing action on the gripping force (muscle strength) | did not show any suppressing action on the tumor volume increase | ameliorated to the extent that is equal to the gripping force (muscle strength) of the model control group | statistically remarkable increasing action on the gripping force (muscle strength) |  | 
CN(C)N(C)C(=O)[C@@]1(Cc2ccccc2)CCCN(C(=O)[C@@H](Cc2c[nH]c3ccccc23)NC(=O)C(C)(C)N)C1 [Anamorelin] |  |  |  |  | does not show an ameliorating action on a muscle weakness symptom | increases a lean body mass
C[C@](O)(COc1ccc(C#N)cc1)C(=O)Nc1ccc(C#N)c(C(F)(F)F)c1 [enobosarm] |  |  |  |  | the effect thereof is not acknowledged | increases a lean body mass
